Experimental findings from paper PMC12320831, “Synthesis and Biological Evaluation of New Chalcogen Semicarbazone (S, Se) and Their Azole Derivatives against Chagas Disease” (Journal of Medicinal Chemistry, 2024) are described below.

One series relates to T. cruzi CAI/72 strain. Nature of the series: Antiparasitic activity in C2C12 cells infected with T. cruzi CAI/72 (image-based assay). In kind it is cell-based. The note with it: for EC50: read-out: EC50 Tc CAI/72, intracellular amastigotes in C2C12 cells, 48 h, mean of three experiments in triplicate (n = 9) ± SD.
Series [1] in a line: DPPH radical scavenging (antioxidant) assay. Particulars: for Percentage of inhibited DPPH (2 h): mean ± SEM. As to the method:
The antioxidant capacity of the selected Se compound was tested using the DPPH assay described by Astrain-Redin. The compound was tested at three different concentrations (0.06, 0.03, and 0.015 mg/mL) and we used two positive controls: ascorbic acid (ASC) and trolox (TRO). A solution of DPPH (2,2-diphenyl-1-picrylhydrazyl) in methanol (0.04 mg/mL, preserved in the dark) was prepared and 100 μL of this stock solution was added to 100 μL of tested compound solution. The color change, from purple (radical) to yellow (reduced), was measured at 517 nm at different time points (0, 5, 15, 30, 60, 90, and 120 min). All measurements were carried out in triplicate and recorded on a BioTek PowerWave XS spectrophotometer (Biotek). Data were collected using BioTek Gen5Microplate reader and Imager software (Agilent, version 3.12). Results are expressed as a percentage of inhibited DPPH ± standard error of the mean (SEM), calculated using the following formula %inhibitedDPPH=Acontrol−Asample/Acontrol×100 where A control refers to the absorbance of the negative control and A sample refers to the absorbance of the tested compound.
(In general: DPPH is a stable violet radical that fades when it is reduced.)

Series [2] concerns the target T1, Recombinant human cathepsin L (hCatL) (Homo sapiens, UniProt P07711).
T1 construct: purchased R&D Systems 952-CY
Nature of the series: Human cathepsin L inhibition assay (Z-FR-AMC substrate). It counts as biochemical. The protocol:
Compounds were screened at 10 μM. […] The experiment was performed for 30 min.
All experiments were accomplished in a 384-well black microplate, using a Synergy HTX (Biotek) plate reader at 25 °C with absorption/emission wavelengths of 360/460 nm. All assays were performed in triplicate wells and DMSO was used as a vehicle control. Enzymatic activity was measured and normalized to DMSO controls, and the inhibitor E-64 (10 μM) was used as a positive control for all assays. All experiments were performed in triplicates, with at least two independent assays (n = 6 data points). IC50 values were determined through nonlinear regression. Obtained data were treated and analyzed using GraphPad Prism 9.0 (GraphPad Software, La Jolla, California).

Another series has as its target T2, recombinant Cz (cruzain) (Trypanosoma cruzi, UniProt P25779).
T2 construct: Cz was expressed and purified as described in da Silva et al; made in house
Description: biochemical. The note with it: for SICz: ratio between IC50 hCatL and IC50 Cz. The procedure, abridged: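 Cruzain (1 nM) was preincubated 10 min with compound in 0.1 M sodium acetate pH 5.5, 1 mM DTT, 0.01% Triton X-100, then 2.5 μM Z-FR-AMC (final) was added. Fluorescence (360/460 nm) was read for 10 min at 25 °C and normalized to DMSO.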

The nature of series [3]: Snapshot pharmacokinetic study in mice. It counts as in vivo, Balb/c mice. As to the method: Compound Se 2h was administered intravenously (5 mg/kg in 10% dimethyl sulfoxide, 30% propylene glycol, 30% PEG 400, and 30% of 10.0% Tween 80 in DI water) and by oral gavage (50 mg/kg in PEG 400 with 5% 1-methyl-2-pyrrolidone) in two female Balb/c mice (6 weeks old) for each group. Blood samples (∼25 μL) were collected with heparinized capillary tubes via the eye vein on mice anesthetized with isoflurane precompound administration and in the following times post administration: 30 min, 1 h, 2 h, 4 h. Samples were immediately centrifuged for plasma collection (supernatant). The animal experiment was approved by the UC San Diego IACUC committee under the protocol S14187 and follow all the ethical standards. The material was submitted for mass spectrometry quantification with provided known amounts spiked in naïve plasma for reference curve.

Values joined by “and” are separate entries in the source; they are usually repeats but may differ in a detail not shown here. Equal entries are not always repeated. Where two headings read alike, the source gives them in different places. Bounds are passed on as bounds.

T2 sequence (P25779 123-337 limits assumed): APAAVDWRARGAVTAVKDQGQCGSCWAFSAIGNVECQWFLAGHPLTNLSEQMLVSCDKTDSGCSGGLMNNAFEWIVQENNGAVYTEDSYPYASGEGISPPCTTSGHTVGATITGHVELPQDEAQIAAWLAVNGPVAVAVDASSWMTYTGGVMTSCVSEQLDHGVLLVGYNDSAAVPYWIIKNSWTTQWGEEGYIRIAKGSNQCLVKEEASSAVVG
T1 sequence (P07711 114-333): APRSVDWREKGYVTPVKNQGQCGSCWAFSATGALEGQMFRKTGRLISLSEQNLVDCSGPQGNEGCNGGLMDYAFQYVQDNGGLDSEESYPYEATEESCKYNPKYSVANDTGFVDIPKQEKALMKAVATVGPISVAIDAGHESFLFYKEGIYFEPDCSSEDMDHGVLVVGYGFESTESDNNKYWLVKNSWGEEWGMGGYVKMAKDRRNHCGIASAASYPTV

Usually IC50 stands for the concentration at which inhibition is half-maximal. The term bioavailability denotes the share of a dose that reaches the circulation, judged against a reference dose that is usually intravenous. As usually defined, the Cmax is the peak of the concentration-time curve. For the molecule `C/C(=N\Nc1nc(C)c[se]1)c1cccc([N+](=O)[O-])c1.Cl` [Se2h, (E)-4-Methyl-2-(2-(1-(3-nitrophenyl)ethylidene)hydrazineyl)-1,3-selenazole Hydrochloride], the inhibition at 10 µM with T. cruzi CAI/72 strain (Trypanosoma cruzi, C2C12, read-out: Anti-Tc CAI/72 activity (%)) is 57.7%; in series [2] (10 µM), 92.2%; on recombinant Cz (cruzain) (read-out: Cz inhibition (%), 10 µM), above 85%. The EC50 in the series on T. cruzi CAI/72 strain is 0.31 ± 0.18 µM; in the series with T. cruzi CAI/72 strain (listed as Se 2h), below 1 µM. The results for the “Percentage of inhibited DPPH (2 h)” value in series [1] (0,03 mg/ml), in series [1] (0,06 mg/ml) and in series [1] (0,015 mg/ml) were 78,00 ± 1,73%, 78,33 ± 1,76% and 77,33 ± 0,88%, respectively. Moreover, in series [1] (0.015 mg/mL), the “time to reach the plateau of the DPPH kinetic curve” value was 30 min. Further, in series [1] (all tested concentrations (0.06, 0.03 and 0.015 mg/mL)), the “inhibition of DPPH after 2 h” value is “more than 60%”. Besides, the IC50 in series [2] (each of two biological replicates in triplicate, read-out: IC50 hCatL, single biological replicate (Figure 4)) is 1.32 µM and 1.36 µM; in series [2] (mean of two experiments in triplicate (n = 6) ± SEM, read-out: IC50 hCatL), 1.34 ± 0.018 µM; on recombinant Cz (cruzain) (IC50 Cz, single biological replicate (Figure 3), each of two biological replicates in triplicate), 0.0034 µM and 0.0145 µM; on recombinant Cz (cruzain) (mean of two experiments in triplicate (n = 6) ± SEM, read-out: IC50 Cz), 0.00899 ± 0.00556 µM. For the same molecule, on recombinant Cz (cruzain) (10 µM), the “Cz inhibition (%)” value turned out to be 100.09%. Moreover, the SICz is given as 148.83 on recombinant Cz (cruzain) and 149 on recombinant Cz (cruzain) (listed as Se 2h). The “acute toxicity in the PK study” value in series [3] (5 mg/kg intravenous and 50 mg/kg oral) is “no signs of acute toxicity”. Moreover, the bioavailability in series [3] (female, Balb/c, mouse, plasma, 50 mg/kg oral vs 5 mg/kg intravenous) was 82%. Moreover, the peak level in series [3] (female, Balb/c, mouse, plasma, oral dose 50 mg/kg) (Cmax at 0.5 h) was 2300 nM. Further, the half-life in series [3] (female, Balb/c, mouse, plasma, other: intravenous and oral, 5 mg/kg intravenous and 50 mg/kg oral, read-out: half-life (T 1/2)) is below 1 h. Also, the “time of C max post administration” value in series [3] (oral dose 50 mg/kg) is given as 30 min.
